Where no end group is shown, it is not given here. The star is where a group is joined. Octanoyl = CCCCCCCC(=O)*
Key:
cultured fetal skin cell = assay: Proliferation activity in cultured fetal skin cell (BrdU uptake, Proliferation ELISA); assay type: cell-based, rat; conditions: 24 hours incubation, BrdU 10 μM, versus control medium, FIG. 2
Procedure: The skin cells of a rat fetus were collected from a Wistar rat on the 17th day of pregnancy, and a dispersion liquid thereof was obtained in the same manner as in Example 1. The dispersed cells were suspended in a MCDB153HAA medium (F-Peptide Co., Ltd., Yamagata, Japan) containing 2% fetal bovine serum, penicillin (100 U/mL), streptomycin (100 μg/mL) and epidermal growth factor EGF (5 ng/mL), and sowed on a polyethyleneimine coated 96-hole multi-well plate in an amount of 3×10^4 cells/well. Desacyl ghrelin (0.05 to 500 μmol/mL (nM)) or desacyl ghrelin (1-15)-NH2 (SEQ ID NO: 22) (0.001 to 1 μmol/mL (nM)) and 5-bromo-2′-deoxyuridine (BrdU) (10 μM) were added thereto, which was then incubated for 24 hours. A medium containing neither desacyl ghrelin nor desacyl ghrelin (1-15)-NH2 was used as a control. After the culture was over, cells were collected, and then uptake quantity of BrdU into the fetal skin cell was measured using Proliferation ELISA Kit (Roche Diagnostic GmbH. Manheim, Germany) to consider the skin cell growth activity.
Uptake of BrdU increased when desacyl ghrelin or desacyl ghrelin (1-15)-NH2 acted on a cultured fetal skin cell.

skin cell of rat fetus = assay: Intracellular calcium increasing activity in single cultured skin cell of rat fetus (Fura-2 calcium imaging); assay type: cell-based; conditions: for cell response in calcium imaging (FIG. 1 curves): single fetal rat skin cell, ghrelin and desacyl ghrelin added to different cells, concentration not given
Procedure: A Wistar rat on the 17th day of pregnancy underwent laparotomy under anesthesia for fetus extraction. A small piece of skin was collected from the fetus, treated with collagenase in cold Hank's solution, digested with papain, and mechanically separated by pipetting. This gave a dispersion liquid of the fetal skin cells. A single cell was obtained from the dispersion liquid, ghrelin was added thereto, and calcium imaging was performed. For the calcium imaging, a calcium imaging device (IMACS, Hamamatsu Photonics) was used. That is, the ratio of the emission at a wavelength of 510 nm was measured when excitation was performed by 340 nm/380 nm light. Fura-2 was used as a calcium imaging agent. Desacyl ghrelin derived from a rat (SEQ ID NO: 3) was used.
In FIG. 1, I, II and III are the points at which a photograph was taken, but the photographs are omitted from the present description. […] Ghrelin and desacyl ghrelin were added to different cells, respectively.
It was shown that a receptor that responds to desacyl ghrelin existed in the skin cell of the rat fetus, and that addition of desacyl ghrelin increased intracellular calcium, inducing the activity of desacyl ghrelin.

Substance | uptake of BrdU into the fetal skin cell (cultured fetal skin cell; desacyl ghrelin (1-15)-NH2 0.001 to 1 μmol/mL (nM)) | uptake of BrdU into the fetal skin cell (cultured fetal skin cell; desacyl ghrelin 0.05 to 500 μmol/mL (nM)) | intracellular calcium (skin cell of rat fetus; 1×10^−6 M, skin cell of a single rat fetus, Fura-2 ratio 340 nm/380 nm, FIG. 1) | cell response in calcium imaging (FIG. 1 curves) (skin cell of rat fetus)
desacyl ghrelin (1-15)-NH2: Peptide of the N terminus to the 15th amino acid residue of desacyl ghrelin, the 15th amino acid amidated (GSSFLSPEHQKAQQR-NH2; listed as Rattus norvegicus) | increased |  |  | 
desacyl ghrelin: Ghrelin peptide without the acyl (octanoyl) group at the third serine; rat sequence GSSFLSPEHQKAQQRKESKKPPAKLQPR (SEQ ID NO: 3) (PEPTIDE (1)..(28) Amino acid sequence for rat endogenous peptides of growth hormone secretagogue receptor; listed as Rattus norvegicus) |  | increased | increase of intracellular calcium was observed | responded
ghrelin: 28-residue peptide hormone, third amino acid from the N terminus acylated with fatty acid (n-octanoyl); acts on GHS-R1a (GSS(Octanoyl)FLSPEHQRVQQRKESKKPPAKLQPR; UniProt Q9UBU3 24-51, looked up) [reference compound] |  |  |  | responded

— US20090305969A1, “Skin Repair Accelerating Therapeutic Agent Containing Desacyl Ghrelin and Derivatives Thereof as Active Ingredient” (priority 2005, published 2009)
